Laboratory results as given in patent publication US5686486A, “4-hydroxy-benzopyran-2-ones and 4-hydroxy-cycloalkyl[b]pyran-2-ones useful to treat retroviral infections” (priority 1995, dated 1997).

Tests used:
HIV-1 protease [1] = target: T1, HIV-1 protease (Human immunodeficiency virus type 1 group M subtype B, UniProt P04585); test: biochemical; conditions: read-out: HIV-1 FITC KI
In short: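 Ki from two-fold serial inhibitor dilutions (24–48 concentrations) with 40 nM HIV-1 protease stock and 200 μM substrate stock, 90 min at room temperature; stopped with avidin beads. Reference inhibitor run in parallel; Ki by nonlinear least-squares fit.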

HIV-1 protease [2] = target: T1, HIV-1 protease; test: biochemical; conditions: for inhibition at 0.123 µM: read-out: HIV-1 Protease % Inhib, dose 0.123 uM; for inhibition at 0.37 µM: read-out: HIV-1 Protease % Inhib, dose 0.370 uM; for inhibition at 1.1 µM: read-out: HIV-1 Protease % Inhib, dose 1.100 uM; for inhibition at 3.3 µM: read-out: HIV-1 Protease % Inhib, dose 3.300 uM; for inhibition at 10 µM: read-out: HIV-1 Protease % Inhib, dose 10.000 uM; for inhibition at 30 µM: read-out: HIV-1 Protease % Inhib, dose 30.000 uM
In short: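 Biotinylated, FITC-labeled peptide substrate (20 μl of 0.2 μM) incubated with HIV-1 protease (10 μl of 0.1 μM) and compound in 0.1 M sodium acetate pH 5.5, 1.0 M NaCl, 0.05% NP-40, 1 h, room temperature, dark. Streptavidin beads then capture uncleaved substrate; filtered labeled product read by fluorescence, giving percent inhibition.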

Compound | Ki (HIV-1 protease [1]) | inhibition at 0.123 µM (HIV-1 protease [2]) | inhibition at 0.37 µM (HIV-1 protease [2]) | inhibition at 1.1 µM (HIV-1 protease [2]) | inhibition at 3.3 µM (HIV-1 protease [2]) | inhibition at 10 µM (HIV-1 protease [2]) | inhibition at 30 µM (HIV-1 protease [2])
O=c1oc2c(c(O)c1C(c1cccc(NS(=O)(=O)c3cc(Br)c(Br)s3)c1)C1CC1)CCCCCC2 (stereo not drawn) [Example 303, 4,5-Dibromo-N-[3-[cyclopropyl(5,6,7,8,9,10-hexahydro-4-hydroxy-2-oxo-2H-cycloocta[b]pyran-3-yl)methyl]phenyl]-2-thiophenesulfonamide] | 5 nM | 67.4% | 96.5% | 97.7% | 109% | 110% | 98%
O=c1oc2c(c(O)c1C(c1cccc(NS(=O)(=O)c3cc(Cl)sc3Cl)c1)C1CC1)CCCCCC2 (stereo not drawn) [Example 304, 2,5-Dichloro-N-[3-[cyclopropyl(5,6,7,8,9,10-hexahydro-4-hydroxy-2-oxo-2H-cycloocta[b]pyran-3-yl)methyl]phenyl]-3-thiophenesulfonamide] | 27.9 nM | 25.7% | 60.2% | 85.9% | 97.8% | 104% | 95.6%
CC(=O)Nc1ccc(S(=O)(=O)Nc2cccc(C(c3c(O)c4c(oc3=O)CCCCCC4)C3CC3)c2)cc1 (stereo not drawn) [Example 307, N-[4-[[[3-[Cyclopropyl(5,6,7,8,9,10-hexahydro-4-hydroxy-2-oxo-2H-cycloocta[b]pyran-3-yl)methyl]phenyl]amino]sulfonyl]phenyl]-acetamide] | 7.6 nM | 19.5% | 66.5% | 85.2% | 97.8% | 105% | 90.3%
O=c1oc2c(c(O)c1C(c1cccc(NS(=O)(=O)c3ccc(N=Nc4ccccc4)cc3)c1)C1CC1)CCCCCC2 (stereo not drawn) [Example 308, N-[3-[Cyclopropyl(5,6,7,8,9,10-hexahydro-4-hydroxy-2-oxo-2H-cycloocta[b]pyran-3-yl)methyl]phenyl]4-(phenylazo)-benzenesulfonamide] | 3.1 nM | 46.5% | 70.4% | 82.3% | 91.3% | 96.9% | 86.8%
CN(C)c1ccc(N=Nc2ccc(S(=O)(=O)Nc3cccc(C(c4c(O)c5c(oc4=O)CCCCCC5)C4CC4)c3)cc2)cc1 (stereo not drawn) [Example 309, N-[3-[Cyclopropyl(5,6,7,8,9,10-hexahydro-4-hydroxy-2-oxo-2H-cycloocta[b]pyran-3-yl)methyl]phenyl]-4-[[4-(dimethylamino)phenyl]azo]-benzenesulfonamide] | 5.8 nM | 46.6% | 67.5% | 82.5% | 76.5% | 43.7% | 19.2%
O=c1oc2c(c(O)c1C(c1cccc(NS(=O)(=O)c3ccc(-c4ccccn4)s3)c1)C1CC1)CCCCCC2 (stereo not drawn) [Example 310, N-[3-[Cyclopropyl(5,6,7,8,9,10-hexahydro4-hydroxy-2-oxo-2H-cycloocta[b]pyran-3-yl)methyl]phenyl]-5-(2-pyridinyl)-2-thiophenesulfonamide] | 2.37 nM | 46.2% | 86.2% | 94.9% | 99% | 103% | 102%
Cc1c(Cl)cccc1S(=O)(=O)Nc1cccc(C(c2c(O)c3c(oc2=O)CCCCCC3)C2CC2)c1 (stereo not drawn) [Example 311, 3-Chloro-N-[3-[cyclopropyl(5,6,7,8,9,10-hexahydro-4-hydroxy-2-oxo-2H-cycloocta[b]pyran-3-yl)methyl]phenyl]-2-methyl-benzenesulfonamide] | 6.33 nM | 20.8% | 71.2% | 86.4% | 92% | 99.5% | 99.5%
O=c1oc2c(c(O)c1C(c1cccc(NS(=O)(=O)c3ccc(OC(F)(F)F)cc3)c1)C1CC1)CCCCCC2 (stereo not drawn) [Example 312, N-[3-[Cyclopropyl(5,6,7,8,9,10-hexahydro-4-hydroxy-2-oxo-2-cycloocta[b]pyran-3-yl)methyl]phenyl]-4-(trifluoromethoxy)-benzenesulfonamide] | 4 nM | 48.2% | 83.6% | 89.7% | 106% | 114% | 110%
O=c1oc2c(c(O)c1C(c1cccc(NS(=O)(=O)c3cccc(NS(=O)(=O)CCCCl)c3)c1)C1CC1)CCCCCC2 (stereo not drawn) [Example 313] | 1.17 nM | 104% | 96.5% | 101% | 100% | 106% | 102%
